Legend:
BAEC [1] = assay: FGF-2-induced migration in wound healing model; type: cell-based, bovine; settings: Bos taurus, FGF-2 25 ng/ml, 18 h
Description: Cells (6 × 10^4/ml) were added to a Thermanox cover slip in a 24-well plate in complete medium and incubated for 24–48 h. When confluent, the medium was replaced with DMEM containing 0.1% FCS and incubated for a further 48 h. Cover slips were washed (PBS, × 3), wounded with a sterile razor to produce a straight edged cut and washed in PBS to remove dislodged cells. Cover slips were added to a fresh 24-well plate in 0.1% FCS and incubated with FGF-2 (or other growth factors) and a range of concentrations of test compounds for 18 h. Under these conditions, there was negligible proliferation but measurable migration. Slides were fixed in ethanol (100%), stained with methylene blue and photographed. For each slide, 10 fields of view (2 mm × 1.45 mm) were counted at random. Each experiment was performed in triplicate and at least twice.

HDMEC = assay: EGF-induced proliferation; type: cell-based, human; settings: EGF 75 ng/ml, 72 h, NS = inhibition less than 50%
Description: Cells were seeded in triplicate at a concentration of 6.0 × 10^5/ml, in 2 ml of complete medium in 6-well plates. […] Growth factors, FGF-2 (25 ng/ml), EGF (75 ng/ml) and VEGF (10 ng/ml) and test compounds at different concentration were added and cells incubated for a further 72 h. Control wells were treated with 5 μl DMSO. Concentration ranges of test compounds and pre-incubation times were based on pilot studies. After 72 h, cells were washed in PBS, detached in 0.05%w/v trypsin in PBS, and counted on a Coulter counter (Coulter Electronics, Hialeah, FL) set to a threshold of 30 μm. Experiments were performed in triplicate and repeated at least twice.

BAEC [2] = assay: Regression of established tubular networks; type: cell-based, bovine; settings: Bos taurus, established FGF-2 tubular network, 24 h
Description: Tube regression under the influence of the test compounds was also investigated. Cell suspensions were mixed with Matrigel supplemented with FGF-2 (25 ng/ml) in 15% FCS as described above.

COc1cc(C=Cc2ccc(O)cc2)cc(OC2OC(COC3OC(C)C(O)C(O)C3O)C(O)C(O)C2OC2OC(C)C(O)C(O)C2O)c1 (stereo not shown) [Compound 1]
IC50 (BAEC [1]): 41.8 ± 0.95 µM
EGF-induced proliferation, IC50 (HDMEC): no significant inhibitory effect
IC50 (HDMEC; Homo sapiens): > 71.5 µM
IC50 (BAEC [2]): 40 ± 0.2 µM

Reference: paper PMC2678990, “Stilbene glycosides are natural product inhibitors of FGF-2-induced angiogenesis” (BMC Cell Biology, 2009)
